From patent US10519504B2, “Methods for treatment of oncological disorders using epimetabolic shifters, multidimensional intracellular molecules, or environmental influencers” (Berg LLC, priority 2009, dated 2019)

System: various cell types
Assay: Induction of early apoptosis in oncogenic and normal cell types (Bcl-2, caspase, annexin V)
Type: cell-based
Description: CoQ10 treatment of cells was carried out as described in detail below in the Materials and Methods. Induction of apoptosis was assessed in the treated cells by monitoring indicators of early apoptosis (e.g., Bcl-2 expression, caspase activation and by using annexin V assays) as described below. From these studies, the minimal CoQ10 dosage, e.g., concentration of CoQ10 and time of treatment, required to induce apoptosis in the panel of cell lines was determined.
Cells were cultured in T-75 flasks with relevant medium supplemented with 10% Fetal Bovine Serum (FBS), 1% PSA (penicillin, streptomycin, amphotericin B) (Invitrogen and Cellgro) in a 37° C. incubator with 5% CO2 levels until 70-80% confluence was reached. To harvest cells for treatment, flasks were primed with 1 mL Trypsin, aspirated, trypsinized with an additional 3 mL, and incubated at 37° C. for 3-5 minutes. Cells were then neutralized with an equal volume of media and the subsequent solution was centrifuged at […] for 8 minutes. The supernatant was aspirated and the cells were resuspended with 8.5 ml of media. A mixture of 500 ul of the resuspension and 9.5 ml of […] was read twice by a coulter counter and the appropriate number of cells to be seeded into each dish was determined. Control and concentration ranging from 0-200 μM groups were examined in triplicate. From a 500 μM CoQ-10 stock solution, serial dilutions were performed to achieve desired experimental concentration in appropriate dishes. Dishes were incubated in a 37° C. incubator with 5% CO2 levels for 0-72 hours depending on cell type and experimental protocol.
The volume of sample to load per well was determined using the raw mean concentration of protein obtained from the BCA protein assay. Approximately 30-60 μg of protein were loaded for each treatment time point. Proteins were run in triplicate on 12% Tris-HCl ready gels (Bio-Rad) or hand cast gels in 1× running buffer at 85 and 100 volts. Proteins were then transferred onto nitrocellulose paper for an hour at 100 volts, and blocked for another hour in a 5% milk solution. Membranes were placed in primary antibody (1 uL Ab:1000 uL TBST) (Cell Signaling) overnight at […] The following day, membranes were washed three times for ten minutes each with Tris-Buffered Saline Tween-20 (TBST), and secondary antibody (anti-rabbit; 1 uL Ab: 1000 uL TBST) was applied for an hour at […] Membranes were washed again three times for ten minutes with TBST and chemoluminescence using Pico or Femto substrate was completed (Pierce). Membranes were then developed at time intervals that produced the best visual results. After developing, membranes were kept in TBST at […] until Actin levels could be measured.
Cells were washed twice in PBS10× and resuspended in Binding Buffer (0.1 M HEPES, pH 7.4; 1.4 M NaCl; 25 mM CaCl2). Samples of 100 μl were added to a culture tube with 5 μl of annexin-PE dye or […]. The cells were mixed and incubated without light at room temperature for 15 minutes. After which, 400 μl of 1× Binding Buffer was added to each sample and they were subjected to analysis by flow cytometry.

COC1=C(OC)C(=O)C(C/C=C(\C)CC/C=C(\C)CC/C=C(\C)CC/C=C(\C)CC/C=C(\C)CC/C=C(\C)CC/C=C(\C)CC/C=C(\C)CC/C=C(\C)CCC=C(C)C)=C(C)C1=O [Q10, Coenzyme Q10]
Indication of Early apoptosis (Bcl-2, annexin V, or caspase activation) (BONE: Ewing's sarcoma (NCI), wrapped cell reads Extremely strong): Extremely | Indication of Early apoptosis (Bcl-2, annexin V, or caspase activation) (BREAST: Mammary fiboblasts: 184A1 and 184B5) (Lawrence Berkeley)): None | Indication of Early apoptosis (Bcl-2, annexin V, or caspase activation) (SKIN: Melanoma (Skmel 2)): Very Strong | Indication of Early apoptosis (Bcl-2, annexin V, or caspase activation) (SKIN: Melanoma (Skmel 28)): Strong | Indication of Early apoptosis (Bcl-2, annexin V, or caspase activation) (SKIN: SCC, Squamous cell carcinoma): Very Strong | dose dependent response of cancer vs control cell lines (keratinocytes, melanocytes vs SK-MEL-28, SK-MEL-2, SCC, PaCa2, HEP-G2, various levels): induction of apoptosis and cell death in the cancer cells only | efficacy of treatment by cell type (oncogenic cell lines of differing aggressiveness): greater in cell types that exhibited increased oncogenicity and/or greater metastatic potential
